Test results published in ChEMBL document CHEMBL1136209, “Bone-targeted 2,6,9-trisubstituted purines: novel inhibitors of Src tyrosine kinase for the treatment of bone diseases” (Bioorg Med Chem Lett, 2003).
pIC50: −log10 of the molar value. Each block holds one molecule with its values, some of them ahead of it.

Experiments:
[1] = Compound was tested for its relative bone-targeting affinity using a hydroxyapatite column
[2] = molecular target: T1, Cyclin-dependent kinase 2 (Homo sapiens, UniProt P24941); test: Inhibition of Cyclin-dependent kinase 2 (CDK2)
[3] = molecular target: DNA-dependent protein kinase catalytic subunit (Homo sapiens) (UniProt P78527); test: Selectivity for Protein kinase, DNAPK
[4] = molecular target: Cyclin-dependent kinase 5 (Homo sapiens) (UniProt Q00535); test: Selectivity for cyclin-dependent kinase-5, CDK5
Chain of Cyclin-dependent kinase 5 (Homo sapiens) (Q00535 whole entry, looked up): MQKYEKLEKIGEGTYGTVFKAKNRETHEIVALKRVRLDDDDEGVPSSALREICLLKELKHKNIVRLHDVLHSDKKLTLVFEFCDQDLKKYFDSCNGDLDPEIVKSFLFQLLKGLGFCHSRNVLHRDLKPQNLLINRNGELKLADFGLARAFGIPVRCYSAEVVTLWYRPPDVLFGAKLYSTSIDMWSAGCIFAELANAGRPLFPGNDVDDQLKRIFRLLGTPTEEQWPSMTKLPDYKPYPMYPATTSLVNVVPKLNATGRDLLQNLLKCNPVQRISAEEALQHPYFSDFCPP

[5] = molecular target: Glycogen synthase kinase-3 beta (Homo sapiens) (UniProt P49841); test: Selectivity for GSK3-beta
[6] = molecular target: Serine/threonine-protein kinase pim-1 (Homo sapiens) (UniProt P11309); test: Selectivity for pim-1 oncogene
Chain of Serine/threonine-protein kinase pim-1 (Homo sapiens) (P11309 whole entry, looked up): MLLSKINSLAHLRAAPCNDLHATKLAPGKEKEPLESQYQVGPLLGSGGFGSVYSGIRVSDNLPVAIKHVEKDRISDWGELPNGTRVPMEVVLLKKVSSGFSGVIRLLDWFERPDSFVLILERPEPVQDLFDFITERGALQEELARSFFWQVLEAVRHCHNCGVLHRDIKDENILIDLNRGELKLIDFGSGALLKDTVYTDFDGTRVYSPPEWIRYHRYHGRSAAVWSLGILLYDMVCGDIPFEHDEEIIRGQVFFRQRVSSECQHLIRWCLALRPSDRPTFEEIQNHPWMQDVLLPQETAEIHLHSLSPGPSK

[7] = molecular target: Protein kinase C (PKC) (Homo sapiens) (UniProt O94806+P41743+P17252+P05129+Q05655+P05771+Q05513+Q02156+P24723+Q15139+Q04759); test: Selectivity for Protein kinase, PKC; type: protein assay
[8] = molecular target: T2, Serine/threonine-protein kinase 3 (Homo sapiens) (UniProt Q13188); test: Selectivity for Serine/threonine kinase 3
T2 sequence (whole entry): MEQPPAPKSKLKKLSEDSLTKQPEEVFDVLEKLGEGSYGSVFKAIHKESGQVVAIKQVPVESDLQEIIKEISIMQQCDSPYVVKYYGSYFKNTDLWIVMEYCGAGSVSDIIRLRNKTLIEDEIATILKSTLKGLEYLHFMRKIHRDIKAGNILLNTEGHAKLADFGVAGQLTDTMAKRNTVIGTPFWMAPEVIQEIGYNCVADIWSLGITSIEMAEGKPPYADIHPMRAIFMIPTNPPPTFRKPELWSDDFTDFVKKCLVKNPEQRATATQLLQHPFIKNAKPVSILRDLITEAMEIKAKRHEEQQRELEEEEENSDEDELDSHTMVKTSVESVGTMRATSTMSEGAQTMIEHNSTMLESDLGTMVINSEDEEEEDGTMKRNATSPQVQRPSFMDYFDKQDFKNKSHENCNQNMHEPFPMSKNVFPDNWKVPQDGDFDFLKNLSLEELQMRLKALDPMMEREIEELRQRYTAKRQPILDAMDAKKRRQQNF

[9] = molecular target: T3, Scaffold protein ILK (Homo sapiens) (UniProt Q13418); test: Selectivity towards Protein kinase, ILK1
T3 sequence (whole entry): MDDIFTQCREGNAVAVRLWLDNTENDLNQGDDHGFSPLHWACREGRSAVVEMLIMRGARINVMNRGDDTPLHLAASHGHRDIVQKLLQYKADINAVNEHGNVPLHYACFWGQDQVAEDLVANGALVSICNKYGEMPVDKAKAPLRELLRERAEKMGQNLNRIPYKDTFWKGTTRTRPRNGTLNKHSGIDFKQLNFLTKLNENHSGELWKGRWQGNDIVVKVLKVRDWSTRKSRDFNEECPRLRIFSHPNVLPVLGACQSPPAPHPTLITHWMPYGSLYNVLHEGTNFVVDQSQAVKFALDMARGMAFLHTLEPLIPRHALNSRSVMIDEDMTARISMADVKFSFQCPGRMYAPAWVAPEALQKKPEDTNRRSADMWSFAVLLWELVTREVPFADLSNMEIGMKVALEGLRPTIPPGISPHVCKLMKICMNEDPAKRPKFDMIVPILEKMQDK

[10] = molecular target: Wee1-like protein kinase (Homo sapiens) (UniProt P30291); test: Selectivity for Protein kinase WEE1
Chain of Wee1-like protein kinase (Homo sapiens) (P30291 whole entry, looked up): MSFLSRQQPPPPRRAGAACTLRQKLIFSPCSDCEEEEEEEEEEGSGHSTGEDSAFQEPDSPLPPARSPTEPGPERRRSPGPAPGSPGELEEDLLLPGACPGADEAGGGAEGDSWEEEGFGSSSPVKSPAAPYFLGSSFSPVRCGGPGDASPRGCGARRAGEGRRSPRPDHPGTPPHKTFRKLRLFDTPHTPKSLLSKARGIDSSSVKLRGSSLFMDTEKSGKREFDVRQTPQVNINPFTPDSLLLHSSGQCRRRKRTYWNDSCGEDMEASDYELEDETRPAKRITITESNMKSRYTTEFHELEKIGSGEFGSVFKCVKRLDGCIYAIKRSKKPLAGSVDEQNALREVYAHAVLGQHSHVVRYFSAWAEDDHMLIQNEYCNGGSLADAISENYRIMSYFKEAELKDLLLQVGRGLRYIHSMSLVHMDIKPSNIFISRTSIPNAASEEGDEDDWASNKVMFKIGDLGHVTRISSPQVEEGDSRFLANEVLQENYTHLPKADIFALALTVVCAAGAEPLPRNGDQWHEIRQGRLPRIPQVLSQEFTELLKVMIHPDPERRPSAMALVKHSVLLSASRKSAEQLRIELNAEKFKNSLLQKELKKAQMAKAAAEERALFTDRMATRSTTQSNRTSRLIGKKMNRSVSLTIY

[11] = molecular target: T1, Cyclin-dependent kinase 2; test: Selectivity for cyclin-dependent kinase 2, CDK2
[12] = molecular target: Tyrosine-protein kinase CSK (Homo sapiens) (UniProt P41240); test: Selectivity over Protein kinase CSK (100-500)
Chain of Tyrosine-protein kinase CSK (Homo sapiens) (P41240 2-450 limits assumed): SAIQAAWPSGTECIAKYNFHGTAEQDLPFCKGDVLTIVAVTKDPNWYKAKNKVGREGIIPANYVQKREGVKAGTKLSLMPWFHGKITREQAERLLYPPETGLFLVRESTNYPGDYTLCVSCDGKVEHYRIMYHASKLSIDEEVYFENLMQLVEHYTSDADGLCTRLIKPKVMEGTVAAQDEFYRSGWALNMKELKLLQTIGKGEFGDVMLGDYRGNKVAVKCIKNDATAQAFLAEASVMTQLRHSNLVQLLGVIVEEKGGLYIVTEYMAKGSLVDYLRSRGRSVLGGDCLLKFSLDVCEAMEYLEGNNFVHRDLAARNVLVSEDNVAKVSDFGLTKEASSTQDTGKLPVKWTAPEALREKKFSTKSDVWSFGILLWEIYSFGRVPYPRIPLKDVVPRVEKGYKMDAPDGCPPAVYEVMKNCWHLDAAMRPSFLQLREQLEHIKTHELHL

[13] = molecular target: Casein kinase II (Homo sapiens) (UniProt P67870+P68400+P19784); test: Selectivity for casein kinase II, CK2; type: protein-complex assay
[14] = molecular target: Tyrosine-protein kinase Lck (Homo sapiens) (UniProt P06239); test: Selectivity p56 Lck tyrosine kinase
Chain of Tyrosine-protein kinase Lck (Homo sapiens) (P06239 2-509 limits assumed): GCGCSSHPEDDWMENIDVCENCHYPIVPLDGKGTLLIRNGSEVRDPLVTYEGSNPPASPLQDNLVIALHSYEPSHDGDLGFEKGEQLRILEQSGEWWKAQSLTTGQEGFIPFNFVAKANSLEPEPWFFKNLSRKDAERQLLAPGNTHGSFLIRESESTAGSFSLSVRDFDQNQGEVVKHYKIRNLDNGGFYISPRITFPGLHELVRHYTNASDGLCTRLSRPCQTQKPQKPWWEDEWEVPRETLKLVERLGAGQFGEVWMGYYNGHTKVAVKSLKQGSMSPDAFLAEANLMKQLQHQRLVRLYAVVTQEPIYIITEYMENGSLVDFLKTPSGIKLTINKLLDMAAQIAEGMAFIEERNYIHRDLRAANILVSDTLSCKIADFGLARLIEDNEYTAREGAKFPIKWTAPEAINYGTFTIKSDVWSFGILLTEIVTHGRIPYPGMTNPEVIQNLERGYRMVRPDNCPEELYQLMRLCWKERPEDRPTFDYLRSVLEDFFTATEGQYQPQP

[15] = molecular target: Serine/threonine-protein kinase pim-1 (Homo sapiens) (UniProt P11309); test: Selectivity towards Protein kinase, PIM1
[16] = molecular target: Serine/threonine-protein kinase PAK 3 (Homo sapiens) (UniProt O75914); test: Selectivity for p21-activated kinase-3, PAK3
[17] = molecular target: Receptor-type tyrosine-protein phosphatase F (Homo sapiens) (UniProt P10586); test: Selectivity towards Protein phosphatase, LAR
Chain of Receptor-type tyrosine-protein phosphatase F (Homo sapiens) (P10586 whole entry): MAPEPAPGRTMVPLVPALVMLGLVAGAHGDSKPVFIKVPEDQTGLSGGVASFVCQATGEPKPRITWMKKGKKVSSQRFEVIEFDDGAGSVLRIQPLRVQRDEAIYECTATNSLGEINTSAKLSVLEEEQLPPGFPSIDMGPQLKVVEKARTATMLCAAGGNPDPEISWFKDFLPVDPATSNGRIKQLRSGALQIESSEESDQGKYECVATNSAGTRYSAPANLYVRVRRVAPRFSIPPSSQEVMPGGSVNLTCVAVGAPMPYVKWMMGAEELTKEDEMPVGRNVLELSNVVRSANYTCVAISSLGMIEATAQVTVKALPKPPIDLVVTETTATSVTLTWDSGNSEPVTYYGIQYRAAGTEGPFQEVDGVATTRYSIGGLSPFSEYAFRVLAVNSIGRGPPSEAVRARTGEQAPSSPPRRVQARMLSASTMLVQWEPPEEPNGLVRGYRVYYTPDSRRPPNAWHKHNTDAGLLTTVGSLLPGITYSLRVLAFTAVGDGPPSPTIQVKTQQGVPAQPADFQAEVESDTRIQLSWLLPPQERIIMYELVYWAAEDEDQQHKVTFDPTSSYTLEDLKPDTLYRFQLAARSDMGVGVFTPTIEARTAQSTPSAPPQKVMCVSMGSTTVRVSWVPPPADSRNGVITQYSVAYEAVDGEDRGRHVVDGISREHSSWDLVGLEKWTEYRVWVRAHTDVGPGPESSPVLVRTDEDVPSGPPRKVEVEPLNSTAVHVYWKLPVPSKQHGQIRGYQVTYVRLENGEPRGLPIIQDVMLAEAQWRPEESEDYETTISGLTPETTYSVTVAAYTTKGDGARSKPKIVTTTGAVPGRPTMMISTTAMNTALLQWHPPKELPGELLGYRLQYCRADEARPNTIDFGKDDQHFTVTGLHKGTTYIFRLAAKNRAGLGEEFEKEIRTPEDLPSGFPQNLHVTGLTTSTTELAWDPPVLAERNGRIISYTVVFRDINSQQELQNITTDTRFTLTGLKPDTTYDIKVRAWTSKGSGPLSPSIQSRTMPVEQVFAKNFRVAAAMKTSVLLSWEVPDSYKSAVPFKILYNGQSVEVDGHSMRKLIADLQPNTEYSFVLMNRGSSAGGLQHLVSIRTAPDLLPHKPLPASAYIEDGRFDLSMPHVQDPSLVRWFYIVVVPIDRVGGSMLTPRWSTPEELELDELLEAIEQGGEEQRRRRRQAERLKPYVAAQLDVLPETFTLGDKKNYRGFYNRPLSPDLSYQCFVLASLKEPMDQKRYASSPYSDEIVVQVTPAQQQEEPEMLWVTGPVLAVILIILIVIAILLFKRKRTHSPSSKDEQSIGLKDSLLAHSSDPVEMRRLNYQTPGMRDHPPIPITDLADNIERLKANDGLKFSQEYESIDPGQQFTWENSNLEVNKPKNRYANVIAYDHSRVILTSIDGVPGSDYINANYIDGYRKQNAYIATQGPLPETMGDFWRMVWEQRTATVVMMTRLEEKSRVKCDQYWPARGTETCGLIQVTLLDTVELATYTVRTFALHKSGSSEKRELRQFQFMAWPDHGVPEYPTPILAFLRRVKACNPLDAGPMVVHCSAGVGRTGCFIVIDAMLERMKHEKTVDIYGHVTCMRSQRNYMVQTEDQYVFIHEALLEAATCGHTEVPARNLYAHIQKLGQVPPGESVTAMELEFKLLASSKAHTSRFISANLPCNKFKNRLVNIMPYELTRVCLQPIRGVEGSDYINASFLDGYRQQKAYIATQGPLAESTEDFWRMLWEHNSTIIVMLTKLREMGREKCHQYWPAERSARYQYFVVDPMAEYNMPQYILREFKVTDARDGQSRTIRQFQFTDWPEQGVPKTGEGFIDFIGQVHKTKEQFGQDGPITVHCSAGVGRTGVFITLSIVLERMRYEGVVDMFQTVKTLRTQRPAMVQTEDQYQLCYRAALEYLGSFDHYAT

[18] = Selectivity towards Protein phosphatase, MEG2
[19] = molecular target: Cyclin-dependent kinase 1 (Homo sapiens) (UniProt P06493); test: Selectivity for cyclin-dependent kinase-1, CDK1
Chain of Cyclin-dependent kinase 1 (Homo sapiens) (P06493 whole entry, looked up): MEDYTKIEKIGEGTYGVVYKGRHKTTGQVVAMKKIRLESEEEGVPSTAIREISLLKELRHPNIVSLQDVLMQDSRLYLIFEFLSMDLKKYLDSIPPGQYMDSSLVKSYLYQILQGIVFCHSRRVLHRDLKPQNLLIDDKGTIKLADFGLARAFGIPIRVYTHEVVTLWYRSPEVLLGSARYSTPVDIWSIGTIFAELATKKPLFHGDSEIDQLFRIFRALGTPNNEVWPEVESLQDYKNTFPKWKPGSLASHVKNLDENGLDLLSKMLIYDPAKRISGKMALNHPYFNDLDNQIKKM

[20] = Selectivity towards Protein kinase, EST-PT1
[21] = molecular target: Tyrosine-protein kinase Fyn (Homo sapiens) (UniProt P06241); test: Selectivity for Fyn kinase
Chain of Tyrosine-protein kinase Fyn (Homo sapiens) (P06241 2-537 limits assumed): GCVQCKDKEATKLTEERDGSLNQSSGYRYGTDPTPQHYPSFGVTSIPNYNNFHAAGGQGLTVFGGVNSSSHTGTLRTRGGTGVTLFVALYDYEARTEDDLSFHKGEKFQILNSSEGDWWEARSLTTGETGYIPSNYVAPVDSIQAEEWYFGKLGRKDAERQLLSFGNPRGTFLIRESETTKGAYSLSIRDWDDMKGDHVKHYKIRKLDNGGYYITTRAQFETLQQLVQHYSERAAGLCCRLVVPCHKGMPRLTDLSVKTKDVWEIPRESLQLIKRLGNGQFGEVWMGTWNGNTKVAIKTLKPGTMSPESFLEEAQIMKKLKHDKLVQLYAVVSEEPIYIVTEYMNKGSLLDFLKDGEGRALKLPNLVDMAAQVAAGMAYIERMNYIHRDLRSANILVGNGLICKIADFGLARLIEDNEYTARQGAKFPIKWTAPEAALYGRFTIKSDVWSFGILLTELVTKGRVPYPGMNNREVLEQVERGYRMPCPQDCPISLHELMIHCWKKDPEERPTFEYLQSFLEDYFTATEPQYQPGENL

[22] = molecular target: Mitogen-activated protein kinase 3 (Homo sapiens) (UniProt P27361); test: Selectivity for mitogen-activated protein kinase, ERK1
[23] = molecular target: cAMP-dependent protein kinase (PKA) (Homo sapiens) (UniProt P22694+P17612+P22612); test: Selectivity for PKA; type: protein assay
[24] = Selectivity towards Protein phosphatase, TC-PTP
[25] = molecular target: T4, Tyrosine-protein phosphatase non-receptor type 1 (Homo sapiens) (UniProt P18031); test: Selectivity towards Protein phosphatase, PTP1b
T4 sequence (whole entry): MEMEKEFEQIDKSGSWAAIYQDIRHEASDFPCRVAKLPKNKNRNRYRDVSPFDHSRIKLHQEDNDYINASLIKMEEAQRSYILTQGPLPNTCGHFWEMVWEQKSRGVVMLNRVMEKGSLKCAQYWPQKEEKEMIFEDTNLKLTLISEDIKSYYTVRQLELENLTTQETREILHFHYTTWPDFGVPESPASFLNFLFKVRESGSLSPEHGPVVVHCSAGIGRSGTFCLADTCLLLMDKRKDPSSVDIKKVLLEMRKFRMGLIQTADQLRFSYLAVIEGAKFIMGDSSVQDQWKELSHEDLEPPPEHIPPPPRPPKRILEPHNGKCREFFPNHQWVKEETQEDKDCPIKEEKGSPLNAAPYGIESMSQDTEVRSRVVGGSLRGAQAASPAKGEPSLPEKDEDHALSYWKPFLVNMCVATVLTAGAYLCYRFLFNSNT

SMILES: CC(C)[C@H](CO)Nc1nc(Nc2cccc(Cl)c2)c2ncn(C(C)C)c2n1 [PURVALANOLA]
- pIC50 [2]: 8.40

SMILES: N[C@H]1CC[C@H](Nc2nc(Nc3ccc(C(P(=O)(O)O)P(=O)(O)O)cc3)c3ncn(C4CCCC4)c3n2)CC1
- K' [1]: 3.3

SMILES: N[C@H]1CC[C@H](Nc2nc(Nc3ccc(P(=O)(O)CP(=O)(O)O)cc3)c3ncn(C4CCCC4)c3n2)CC1
- Selectivity [3]: > 500
- Selectivity [4]: 10
- Selectivity [5]: > 500
- Selectivity [6]: > 500
- Selectivity [7]: > 500
- Selectivity [8]: > 500
- Selectivity [9]: > 500
- Selectivity [10]: > 500
- Selectivity [11]: 10
- Selectivity [12]: 100
- Selectivity [13]: > 500
- Selectivity [14]: 100
- Selectivity [15]: > 500
- Selectivity [16]: 100
- Selectivity [17]: > 500
- Selectivity [18]: > 500
- Selectivity [19]: 10
- Selectivity [20]: > 500
- Selectivity [21]: 1
- Selectivity [22]: > 500
- Selectivity [23]: > 500
- Selectivity [24]: > 500
- Selectivity [25]: > 500
- K' [1]: 2.5

SMILES: N[C@H]1CC[C@H](Nc2nc(Nc3ccc(P(=O)(O)O)c(P(=O)(O)O)c3)c3ncn(C4CCCC4)c3n2)CC1
- K' [1]: 1.8

Continued, values first:

- K' [1]: 0
SMILES: CN(C)CCNc1nc(Nc2ccccc2)c2ncn(C3CCCC3)c2n1

- K' [1]: 0
SMILES: N[C@H]1CC[C@H](Nc2nc(Nc3ccccc3)c3ncn(C4CCCC4)c3n2)CC1

- K' [1]: 2.3
SMILES: O=P(O)(O)CP(=O)(O)CCCNc1nc(Nc2ccccc2)c2ncn(C3CCCC3)c2n1

- K' [1]: 3.6
SMILES: O=P(O)(O)C(O)(CCCNc1nc(Nc2ccccc2)c2ncn(C3CCCC3)c2n1)P(=O)(O)O
